{
  "source": "patent US11850283B2",
  "about": "“Liponucleotide-based therapy for asthma” (priority 2017, dated 2023)",
  "key": {"[1]": {"tested_on": "influenza A/WSN/33 (H1N1)-infected mice", "assay": "Effect of influenza infection and i.p. liponucleotide treatment on lung function", "format": "in vivo, mouse", "settings": "for CST / HR (bpm) / RBASAL / SaO2 (%) / WET:DRY: day 6", "from_the_text": "SaO2 increased from approximately 85% to approximately 96%. This is equivalent to an increase in PaO2 from approximately 65 mmHg to approximately 85 mmHg. It is also equivalent to an increase in O2 carrying capacity of blood (CaO2) from approximately 88% to approximately 97% of normal. Patients with an SaO2 of 96% or a […] would not require additional treatment"}, "[2]": {"tested_on": "ATII cells from influenza A/WSN/33 (H1N1)-infected mice", "assay": "Effect of influenza infection and CDP-CHO treatment on ATII cell ultrastructure", "format": "in vivo, mouse", "from_the_text": "FIG. 14 is a group of three transmission electron micrographs showing effects of CDP-CHO treatment on ultrastructure of ATII cell lamellar bodies (composed of surfactant lipids and proteins). Relative to mock-infected controls, lamellar bodies in ATII cells from influenza A/WSN/33 (H1N1)-infected mice are smaller and have disordered lamellae.\nFIG. 15 is a group of 3 transmission electron micrographs showing effects of influenza infection on ultrastructure of ATII cell mitochondria (Mi). Relative to mock-infected controls (left), Mi in ATII cells from A/WSN/33 (H1N1)-infected mice (center) are fewer in number, less electron dense, and have disordered membranes and cristae."}, "influenza-infected mice": {"tested_on": "influenza-infected mice", "assay": "Effect of influenza infection and CDP-CHO treatment on lung inflammation", "format": "in vivo", "settings": "day 6; 100 μg/mouse i.p., daily from 1-5 days post-infection"}, "[3]": {"tested_on": "mitochondria, influenza-infected mice", "assay": "Effect of influenza infection and CDP-CHO treatment on mitochondrial function", "format": "in vivo", "settings": "day 6; 100 μg/mouse i.p., daily from 1-5 days post-infection"}, "[4]": {"tested_on": "mouse model of asthma (dust mite/ragweed/Aspergillus fumigatus [DRA] triple antigen exposure)", "assay": "Airway hyperresponsiveness to methacholine (flexiVent) in DRA mouse model of asthma", "format": "in vivo, BALB/c mice", "procedure": "(§1) To experimentally determine the efficacy of the liponucleotides (lipoNTs) CDP-choline (CDP-CHO), CDP-ethanolamine (CDP-ETH), and CDP-diacylglycerol 16:0/16:0 (CDP-DAG) as therapeutics in a mouse model of asthma (dust mite/ragweed/Aspergillus fumigatus [DRA] triple antigen exposure) (Chung S, et al. Oncotarget 2016 7:17532-17546).\n(§2) To induce asthma, adult female BALB/c mice (n=4-5 per group) were sensitized with 50 μl alum+50 μl sterile saline containing dust mite allergen (5 μg/mouse)+ragweed allergen (5 μg/mouse)+Aspergillus allergen (5 μg/mouse) by i.p. injection on days 0 and 5. Mice were then challenged intranasally with dust mite allergen (8.3 μg/mouse)+ragweed allergen ([…])+Aspergillus allergen (8.3 μg/mouse) in 30 μl saline on days 12, 13, and 14, under isoflurane anesthesia. LipoNTs were administered daily by the intraperitoneal route in 50 μl sterile saline.\n(§3) Data were collected 15 days after first exposure to DRA in terminal experiments.\nAirway hyperresponsiveness (AHR) was measured by the forced-oscillation method using the SciReq flexiVent computer-controlled mechanical ventilator. […] Airway resistance at each methacholine dose was quantified by the single-compartment model. […]"}, "[5]": {"tested_on": "mouse model of asthma (dust mite/ragweed/Aspergillus fumigatus [DRA] triple antigen exposure)", "assay": "BALF total and differential cell counts in DRA mouse model of asthma", "format": "in vivo, BALB/c mice", "procedure": "as §1, §2, §3\nFollowing flexiVent analysis, bronchoalveolar lavage was performed on all mice using 0.8 ml PBS. BALF total and differential cell counts (trypan-blue stained live cells and Giemsa-stained cytospins, respectively) were performed on cell pellets to assess inflammatory cell infiltrates. BALF eosinophil (EO), alveolar macrophage (AM), and neutrophil (PMN) counts were determined."}, "[6]": {"tested_on": "mouse model of asthma (dust mite/ragweed/Aspergillus fumigatus [DRA] triple antigen exposure)", "assay": "BALF cytokine and chemokine content by ELISA in DRA mouse model of asthma", "format": "in vivo, BALB/c mice", "settings": "treatment days 1-14 i.p. daily, mean ± SEM", "procedure": "as §1, §2, §3\nBAL supernatant fluid was stored at −20° C. for subsequent measurement of cytokine and/or chemokine content by ELISA using commercially available kits in accordance with manufacturers' instructions."}, "[7]": {"settings": "100 μg/mouse i.p. on day 5 only"}, "[8]": {"settings": "i.p. daily from 1-5 days post-infection, CDP-CHO 100 μg/mouse, CDP-DAG 10 μg/mouse"}, "[9]": {"settings": "i.p. daily from 1-5 days post-infection, CDP-CHO and CDP-ETH 100 μg/mouse, CDP-DAG 10 μg/mouse"}, "[10]": {"settings": "ATII cells of infected mice, result in words"}, "[11]": {"settings": "day 6, 100 μg/mouse i.p., daily from 1-5 days post-infection"}, "[12]": {"settings": "treatment days 1-14, result in words"}, "[13]": {"settings": "treatment days 1-14 i.p. daily, day 15, mean ± SEM"}},
  "note": "Entries after “also recorded” stand apart in the source; their conditions may differ. Marks after values point to notes of the source that are not given here.",
  "data": [
    {"compound": "C[N+](C)(C)CCO[P@TB16](=O)(O)O[P@TB16](=O)(O)OC[C@H]1O[C@@H](n2ccc(N)nc2=O)[C@H](O)[C@@H]1O", "note": "[CDP-CHO, CDP-choline]", "values": [
      {"measurement": "CST", "setting": "[1]; [7]", "result": "0.05 ± 0.006"},
      {"measurement": "HR (bpm)", "setting": "[1]; [7]", "result": "550 ± 10", "unit": "bpm"},
      {"measurement": "RBASAL", "setting": "[1]; [7]", "result": "1.63 ± 0.22"},
      {"measurement": "SaO2 (%)", "setting": "[1]; [7]", "result": "92.9 ± 1.5", "unit": "%"},
      {"measurement": "WET:DRY", "setting": "[1]; [7]", "result": "6.2 ± 0.2"},
      {"measurement": "CST", "setting": "[1]; [8]", "result": "0.05 ± 0.002"},
      {"measurement": "RBASAL", "setting": "[1]; [8]", "result": "1.96 ± 0.12"},
      {"measurement": "HR (bpm)", "setting": "[1]; [9]", "result": "570 ± 10", "unit": "bpm"},
      {"measurement": "SaO2 (%)", "setting": "[1]; [9]", "result": "93.5 ± 1.0", "unit": "%"},
      {"measurement": "WET:DRY", "setting": "[1]; [9]", "result": "6.2 ± 0.4"},
      {"measurement": "PaO2", "setting": "[1]; equivalent of the SaO2 increase, from approximately 65 mmHg", "result": "approximately 85 mmHg"},
      {"measurement": "O2 carrying capacity of blood (CaO2)", "setting": "[1]; equivalent of the SaO2 increase, from approximately 88%", "result": "approximately 97 % of normal"},
      {"measurement": "SaO2", "setting": "[1]; infected mice, CDP-CHO treatment, increased from approximately 85%", "result": "approximately 96%"},
      {"measurement": "Effects of single dose treatment late in infection compared with daily treatment", "setting": "[1]; infected mice, result in words", "result": "as good as those of daily treatment"},
      {"measurement": "cardiac function", "setting": "[1]; infected mice, result in words", "result": "improved cardiac function"},
      {"measurement": "lung function", "setting": "[1]; infected mice, result in words", "result": "better lung function"},
      {"measurement": "oxygenation", "setting": "[1]; infected mice, result in words", "result": "improved oxygenation"},
      {"measurement": "pulmonary edema", "setting": "[1]; infected mice, result in words", "result": "reduced pulmonary edema"},
      {"measurement": "ATII cell mitochondria (Mi) morphology (transmission electron micrographs)", "setting": "[2]; [10]", "result": "more electron-dense and have more normal cristae; also recorded: display normal morphology"},
      {"measurement": "lamellar body morphology (transmission electron micrographs)", "setting": "[2]; [10]", "result": "improves lamellar body morphology"},
      {"measurement": "ATII CELL AREA (μm^2)", "setting": "[2]; [11]", "result": "53.64 ± 5.63* μm^2"},
      {"measurement": "LAMELLAR BODIES/CELL", "setting": "[2]; [11]", "result": "8.1 ± 1.16"},
      {"measurement": "LAMELLAR BODY AREA (μm^2)", "setting": "[2]; [11]", "result": "0.41 ± 0.04* μm^2"},
      {"measurement": "MITOCHONDRIAL/CELL", "setting": "[2]; [11]", "result": "14.5 ± 1.78"},
      {"measurement": "MIT[…] (μm^2)", "setting": "[2]; [11]", "result": "0.34 ± 0.01* μm^2"},
      {"measurement": "BALF ALVEOLAR MACS (×10^6/ml)", "setting": "influenza-infected mice", "result": "1.08 ± 0.21 ×10^6/ml"},
      {"measurement": "BALF NEUTROPHILS (×10^6/ml)", "setting": "influenza-infected mice", "result": "0.45 ± 0.07 ×10^6/ml"},
      {"measurement": "BALF PC", "setting": "influenza-infected mice", "result": "1.61 ± 0.45"},
      {"measurement": "VIRAL TITER (log PFU/g)", "setting": "influenza-infected mice", "result": "5.32 ± 0.07", "unit": "log PFU/g"},
      {"measurement": "MITOCHONDRIAL MEMBRANE POTENTIAL (ψm; DilC1(5) MCF)", "setting": "[3]", "result": "10.14 ± 2.3"},
      {"measurement": "MIT[…] PRODUCTION", "setting": "[3]", "result": "36.91 ± 6.82"},
      {"measurement": "DRA-induced AHR", "setting": "[4]; [12]", "result": "does not attenuate"},
      {"measurement": "RMAX (cmH2O · s/ml)", "setting": "[4]; treatment days 1-14 i.p. daily, CDP-CHO, CDP-ETH 5 mg/kg, CDP-DAG 0.5 mg/kg, peak airway resistance at 50 mg/ml methacholine, day 15, mean ± SEM", "result": "2.65 ± 0.06", "unit": "cmH2O · s/ml"},
      {"measurement": "anti-inflammatory effect (BALF leukocyte counts)", "setting": "[5]; [12]", "result": "decreases BALF EO and AM counts"},
      {"measurement": "BALF AMs (×10^6)", "setting": "[5]; [13]", "result": "0.14 ± 0.03 ×10^6"},
      {"measurement": "BALF EOs (×10^6)", "setting": "[5]; [13]", "result": "0.26 ± 0.03 ×10^6"},
      {"measurement": "BALF PMNs (×10^6)", "setting": "[5]; [13]", "result": "0.1 ± 0.03 ×10^6"},
      {"measurement": "CCL-11 (pg/ml), also known as eotaxin-1", "setting": "[6]", "result": "18 ± 8", "unit": "pg/mL"},
      {"measurement": "IL-5", "setting": "[6]", "result": "16 ± 5", "unit": "pg/mL"},
      {"measurement": "IL-17", "setting": "[6]", "result": "5 ± 1", "unit": "pg/mL"}
    ]},
    {"compound": "NCCO[P@SP3](=O)(O)O[P@SP3](=O)(O)OC[C@H]1O[C@@H](n2ccc(N)nc2=O)[C@H](O)[C@@H]1O", "note": "[CDP-ETH, CDP-ethanolamine]", "values": [
      {"measurement": "HR (bpm)", "setting": "[1]; [9]", "result": "540 ± 20", "unit": "bpm"},
      {"measurement": "SaO2 (%)", "setting": "[1]; [9]", "result": "91.1 ± 1.5", "unit": "%"},
      {"measurement": "WET:DRY", "setting": "[1]; [9]", "result": "6.5 ± 0.4"}
    ]},
    {"compound": "CDP-diacylglycerol [CDP-DAG]", "values": [
      {"measurement": "HR (bpm)", "setting": "[1]; [9]", "result": "600 ± 10", "unit": "bpm"},
      {"measurement": "SaO2 (%)", "setting": "[1]; [9]", "result": "95.2 ± 1.6", "unit": "%"},
      {"measurement": "WET:DRY", "setting": "[1]; [9]", "result": "5.8 ± 0.1"}
    ]}
  ]
}
